The kinase profiling compilation of Christmann-Franck et al. (2016)

Experiments:
Assay in all cases: radiometric filter-binding kinase assay, Kinase HotSpot
Settings in all cases: compound 0.5 µM; ATP 10 µM
GRK5 (human) = GRK5 (human) (UniProt P34947)
TEK (human) = TEK (human) (UniProt Q02763)
CDK7 CCNH MNAT1 (human) = CDK7 CCNH MNAT1 (human) (UniProt P50613+P51948+P51946)
CSF1R (human) = CSF1R (human) (UniProt P07333)
AURKC (human) = AURKC (human) (UniProt Q9UQB9)
TYRO3 (human) = TYRO3 (human) (UniProt Q06418)
AKT2 (human) = AKT2 (human) (UniProt P31751)
CDK5 CDK5R1 p35 (human) = CDK5 CDK5R1 p35 (human) (UniProt Q00535+Q15078)
PDGFRB (human) = PDGFRB (human) (UniProt P09619)
PHKG2 (human) = PHKG2 (human) (UniProt P15735)
FER (human) = FER (human) (UniProt P16591)
MUSK (human) = MUSK (human) (UniProt O15146)
FLT1 (human) = FLT1 (human) (UniProt P17948)
CDK6 CCND1 (human) = CDK6 CCND1 (human) (UniProt Q00534+P24385)
ROCK2 (human) = ROCK2 (human) (UniProt O75116)
MINK1 (human) = MINK1 (human) (UniProt Q8N4C8)
DAPK3 (human) = DAPK3 (human) (UniProt O43293)
EPHA4 (human) = EPHA4 (human) (UniProt P54764)
ACVR1B (human) = ACVR1B (human) (UniProt P36896)
MAP3K8 (human) = MAP3K8 (human) (UniProt P41279)
ERBB4 (human) = ERBB4 (human) (UniProt Q15303)
NEK3 (human) = NEK3 (human) (UniProt P51956)
PRKCD (human) = PRKCD (human) (UniProt Q05655)
LCK (human) = LCK (human) (UniProt P06239)
PLK2 (human) = PLK2 (human) (UniProt Q9NYY3)
PIM2 (human) = PIM2 (human) (UniProt Q9P1W9)
MAP3K3 (human) = MAP3K3 (human) (UniProt Q99759)
CDK2 CCNA2 (human) = CDK2 CCNA2 (human) (UniProt P24941+P20248)
ZAP70 (human) = ZAP70 (human) (UniProt P43403)
CSNK1G1 (human) = CSNK1G1 (human) (UniProt Q9HCP0)
TEC (human) = TEC (human) (UniProt P42680)
CLK1 (human) = CLK1 (human) (UniProt P49759)
MAPK3 (human) = MAPK3 (human) (UniProt P27361)
PAK6 (human) = PAK6 (human) (UniProt Q9NQU5)
DMPK (human) = DMPK (human) (UniProt Q09013)
TNK2 (human) = TNK2 (human) (UniProt Q07912)
KIT (human) = KIT (human) (UniProt P10721)
MAPK13 (human) = MAPK13 (human) (UniProt O15264)
FGFR1 (human) = FGFR1 (human) (UniProt P11362)
ROS1 (human) = ROS1 (human) (UniProt P08922)
STK25 (human) = STK25 (human) (UniProt O00506)
[1] = biological target: TYK2 JH1 catalytic (human) (UniProt P29597)

Chain of PHKG2 (human) (P15735 whole entry, looked up): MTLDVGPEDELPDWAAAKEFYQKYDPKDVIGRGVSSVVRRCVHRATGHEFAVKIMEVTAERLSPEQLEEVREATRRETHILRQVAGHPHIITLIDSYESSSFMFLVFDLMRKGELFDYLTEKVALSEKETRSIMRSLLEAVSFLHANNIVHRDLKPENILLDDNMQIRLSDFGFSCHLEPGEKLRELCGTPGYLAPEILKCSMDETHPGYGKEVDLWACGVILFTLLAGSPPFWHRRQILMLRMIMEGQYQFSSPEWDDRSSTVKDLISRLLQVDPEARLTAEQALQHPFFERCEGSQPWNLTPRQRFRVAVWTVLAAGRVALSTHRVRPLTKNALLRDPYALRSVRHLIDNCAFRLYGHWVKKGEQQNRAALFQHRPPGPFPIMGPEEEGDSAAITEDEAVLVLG
Chain of TEC (human) (P42680 whole entry, looked up): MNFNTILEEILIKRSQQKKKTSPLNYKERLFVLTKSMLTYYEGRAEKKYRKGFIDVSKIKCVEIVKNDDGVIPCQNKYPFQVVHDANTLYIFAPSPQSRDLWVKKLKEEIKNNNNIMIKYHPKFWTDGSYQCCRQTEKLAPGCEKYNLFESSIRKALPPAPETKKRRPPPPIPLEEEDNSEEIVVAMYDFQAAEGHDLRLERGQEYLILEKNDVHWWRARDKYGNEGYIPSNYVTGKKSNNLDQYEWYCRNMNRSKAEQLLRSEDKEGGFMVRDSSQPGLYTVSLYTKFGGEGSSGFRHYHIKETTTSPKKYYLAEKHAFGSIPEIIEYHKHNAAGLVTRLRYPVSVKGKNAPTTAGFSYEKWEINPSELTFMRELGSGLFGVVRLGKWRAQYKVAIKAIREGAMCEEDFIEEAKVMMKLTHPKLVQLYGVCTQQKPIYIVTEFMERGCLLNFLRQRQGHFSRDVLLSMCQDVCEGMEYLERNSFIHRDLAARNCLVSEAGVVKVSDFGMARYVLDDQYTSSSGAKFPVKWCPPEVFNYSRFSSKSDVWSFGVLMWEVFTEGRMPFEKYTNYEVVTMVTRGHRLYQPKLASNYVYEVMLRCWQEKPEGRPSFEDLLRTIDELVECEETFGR
Chain of ERBB4 (human) (Q15303 whole entry, looked up): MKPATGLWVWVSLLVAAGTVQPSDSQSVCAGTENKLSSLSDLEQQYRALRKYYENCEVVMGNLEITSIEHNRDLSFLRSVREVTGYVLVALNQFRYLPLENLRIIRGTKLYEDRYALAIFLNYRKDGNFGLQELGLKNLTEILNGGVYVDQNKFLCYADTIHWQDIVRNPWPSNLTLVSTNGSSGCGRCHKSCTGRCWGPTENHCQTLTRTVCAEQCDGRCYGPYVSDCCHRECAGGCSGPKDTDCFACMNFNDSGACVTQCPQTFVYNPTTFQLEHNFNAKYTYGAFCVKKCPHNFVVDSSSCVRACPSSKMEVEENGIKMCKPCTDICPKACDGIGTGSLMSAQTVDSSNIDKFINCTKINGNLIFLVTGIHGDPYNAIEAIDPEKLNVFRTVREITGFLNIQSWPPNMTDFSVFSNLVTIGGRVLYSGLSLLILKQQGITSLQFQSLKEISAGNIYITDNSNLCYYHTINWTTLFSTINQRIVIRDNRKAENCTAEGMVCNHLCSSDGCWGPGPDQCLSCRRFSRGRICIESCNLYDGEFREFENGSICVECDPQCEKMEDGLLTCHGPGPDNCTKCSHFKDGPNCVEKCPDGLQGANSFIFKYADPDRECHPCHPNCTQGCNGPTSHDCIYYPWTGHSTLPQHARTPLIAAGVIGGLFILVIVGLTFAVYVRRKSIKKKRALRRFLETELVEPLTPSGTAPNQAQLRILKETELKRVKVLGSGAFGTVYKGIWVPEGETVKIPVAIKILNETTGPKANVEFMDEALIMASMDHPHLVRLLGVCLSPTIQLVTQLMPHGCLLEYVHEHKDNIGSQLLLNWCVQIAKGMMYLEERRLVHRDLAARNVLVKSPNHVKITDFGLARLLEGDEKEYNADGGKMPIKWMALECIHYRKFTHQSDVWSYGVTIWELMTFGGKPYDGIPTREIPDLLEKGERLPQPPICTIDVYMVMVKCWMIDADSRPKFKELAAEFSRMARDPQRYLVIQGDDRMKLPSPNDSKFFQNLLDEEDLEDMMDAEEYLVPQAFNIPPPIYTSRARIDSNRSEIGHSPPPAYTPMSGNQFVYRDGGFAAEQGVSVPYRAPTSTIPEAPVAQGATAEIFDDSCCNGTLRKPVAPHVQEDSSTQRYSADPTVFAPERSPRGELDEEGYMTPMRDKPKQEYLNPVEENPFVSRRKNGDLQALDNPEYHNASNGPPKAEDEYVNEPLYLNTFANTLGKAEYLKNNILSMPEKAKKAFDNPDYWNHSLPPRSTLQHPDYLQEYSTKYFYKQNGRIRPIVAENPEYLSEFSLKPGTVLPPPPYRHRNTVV
Chain of ZAP70 (human) (P43403 whole entry, looked up): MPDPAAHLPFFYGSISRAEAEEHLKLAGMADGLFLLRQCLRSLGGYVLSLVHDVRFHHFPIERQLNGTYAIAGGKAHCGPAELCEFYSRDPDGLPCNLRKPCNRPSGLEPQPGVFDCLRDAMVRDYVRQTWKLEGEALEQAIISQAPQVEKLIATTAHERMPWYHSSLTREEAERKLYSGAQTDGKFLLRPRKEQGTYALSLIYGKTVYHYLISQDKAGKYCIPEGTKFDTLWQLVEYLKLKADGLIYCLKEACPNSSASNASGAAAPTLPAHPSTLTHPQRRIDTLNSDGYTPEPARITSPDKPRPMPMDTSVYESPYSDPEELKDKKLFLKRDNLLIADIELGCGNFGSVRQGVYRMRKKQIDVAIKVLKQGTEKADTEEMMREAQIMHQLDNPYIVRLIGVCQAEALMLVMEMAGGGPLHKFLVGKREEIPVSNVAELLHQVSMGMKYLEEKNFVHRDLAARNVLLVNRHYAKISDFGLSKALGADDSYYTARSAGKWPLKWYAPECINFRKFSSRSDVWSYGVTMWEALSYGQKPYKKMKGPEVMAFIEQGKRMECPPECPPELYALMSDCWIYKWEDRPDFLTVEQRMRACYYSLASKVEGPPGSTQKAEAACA
Chain of EPHA4 (human) (P54764 whole entry, looked up): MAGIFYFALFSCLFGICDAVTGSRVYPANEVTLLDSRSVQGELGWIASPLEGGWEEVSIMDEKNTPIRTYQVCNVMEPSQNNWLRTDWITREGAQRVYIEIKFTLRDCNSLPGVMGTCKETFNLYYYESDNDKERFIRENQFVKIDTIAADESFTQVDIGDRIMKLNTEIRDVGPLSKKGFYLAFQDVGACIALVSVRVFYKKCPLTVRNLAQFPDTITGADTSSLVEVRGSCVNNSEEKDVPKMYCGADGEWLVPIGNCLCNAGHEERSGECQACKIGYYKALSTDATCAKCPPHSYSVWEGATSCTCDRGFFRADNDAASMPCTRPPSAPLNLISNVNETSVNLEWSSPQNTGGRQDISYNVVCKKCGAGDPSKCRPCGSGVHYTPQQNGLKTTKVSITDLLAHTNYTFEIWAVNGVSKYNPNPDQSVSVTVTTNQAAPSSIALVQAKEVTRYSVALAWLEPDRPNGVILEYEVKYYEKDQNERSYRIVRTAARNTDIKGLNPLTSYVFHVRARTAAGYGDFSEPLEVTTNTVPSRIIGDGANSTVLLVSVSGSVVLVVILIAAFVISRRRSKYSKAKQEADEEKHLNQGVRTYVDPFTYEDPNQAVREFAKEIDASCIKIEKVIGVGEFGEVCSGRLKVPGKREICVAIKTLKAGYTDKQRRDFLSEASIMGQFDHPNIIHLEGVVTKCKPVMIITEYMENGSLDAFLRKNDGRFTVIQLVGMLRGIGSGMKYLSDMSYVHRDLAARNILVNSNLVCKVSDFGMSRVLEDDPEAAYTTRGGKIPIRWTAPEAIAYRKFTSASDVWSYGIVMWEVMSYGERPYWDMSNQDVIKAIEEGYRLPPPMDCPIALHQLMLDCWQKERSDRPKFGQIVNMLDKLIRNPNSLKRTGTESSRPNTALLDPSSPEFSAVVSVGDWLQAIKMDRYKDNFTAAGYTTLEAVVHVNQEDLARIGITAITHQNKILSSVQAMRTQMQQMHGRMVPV
Chain of CDK2 CCNA2 (human) (P20248 whole entry, looked up, other chains not shown): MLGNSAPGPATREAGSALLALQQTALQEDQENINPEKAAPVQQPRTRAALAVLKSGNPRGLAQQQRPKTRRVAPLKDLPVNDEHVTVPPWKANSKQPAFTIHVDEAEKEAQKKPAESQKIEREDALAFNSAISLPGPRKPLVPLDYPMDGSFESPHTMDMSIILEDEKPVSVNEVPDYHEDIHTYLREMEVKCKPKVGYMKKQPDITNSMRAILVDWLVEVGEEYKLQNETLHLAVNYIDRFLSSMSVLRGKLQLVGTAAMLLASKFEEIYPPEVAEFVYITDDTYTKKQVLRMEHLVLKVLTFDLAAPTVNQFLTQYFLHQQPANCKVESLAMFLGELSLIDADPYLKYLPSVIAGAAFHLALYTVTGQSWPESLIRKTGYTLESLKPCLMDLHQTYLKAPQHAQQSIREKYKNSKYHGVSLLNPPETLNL
Chain of ACVR1B (human) (P36896 whole entry, looked up): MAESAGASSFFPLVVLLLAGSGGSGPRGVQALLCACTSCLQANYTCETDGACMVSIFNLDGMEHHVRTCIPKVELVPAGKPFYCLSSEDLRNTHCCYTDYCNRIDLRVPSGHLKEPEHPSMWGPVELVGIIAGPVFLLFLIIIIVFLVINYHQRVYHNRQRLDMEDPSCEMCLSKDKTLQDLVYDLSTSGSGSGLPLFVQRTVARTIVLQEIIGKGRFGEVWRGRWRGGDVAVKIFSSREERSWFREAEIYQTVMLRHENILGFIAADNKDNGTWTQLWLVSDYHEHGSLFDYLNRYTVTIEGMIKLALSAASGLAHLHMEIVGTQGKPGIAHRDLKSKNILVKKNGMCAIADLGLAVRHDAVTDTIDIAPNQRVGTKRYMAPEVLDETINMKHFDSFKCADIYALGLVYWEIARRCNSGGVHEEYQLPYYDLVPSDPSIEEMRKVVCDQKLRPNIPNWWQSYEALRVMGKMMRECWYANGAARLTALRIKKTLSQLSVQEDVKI

## CCn1cnc2c(Nc3cccc(Cl)c3)nc(N[C@@H]3CCCC[C@@H]3N)nc21
GRK5 (human)
  residual activity: 106%
TEK (human)
  residual activity: 99.9%
CDK7 CCNH MNAT1 (human)
  residual activity: 58.4%
CSF1R (human)
  residual activity: 94.2%
AURKC (human)
  residual activity: 94.5%
TYRO3 (human)
  residual activity: 98.3%
AKT2 (human)
  residual activity: 108%
CDK5 CDK5R1 p35 (human)
  residual activity: 13.2%
PDGFRB (human)
  residual activity: 99.6%
PHKG2 (human)
  residual activity: 85.6%
FER (human)
  residual activity: 86.8%
MUSK (human)
  residual activity: 79.8%
FLT1 (human)
  residual activity: 92.8%
CDK6 CCND1 (human)
  residual activity: 60.9%
ROCK2 (human)
  residual activity: 90.6%
MINK1 (human)
  residual activity: 95.2%
DAPK3 (human)
  residual activity: 105%
EPHA4 (human)
  residual activity: 78.5%
ACVR1B (human)
  residual activity: 110%
MAP3K8 (human)
  residual activity: 93.6%
ERBB4 (human)
  residual activity: 103%
NEK3 (human)
  residual activity: 100%
PRKCD (human)
  residual activity: 91.2%
LCK (human)
  residual activity: 89.5%
PLK2 (human)
  residual activity: 95.8%
PIM2 (human)
  residual activity: 111%
MAP3K3 (human)
  residual activity: 103%
CDK2 CCNA2 (human)
  residual activity: 23.6%
ZAP70 (human)
  residual activity: 106%
CSNK1G1 (human)
  residual activity: 56.8%
TEC (human)
  residual activity: 123%
CLK1 (human)
  residual activity: 89.3%
MAPK3 (human)
  residual activity: 108%
PAK6 (human)
  residual activity: 96.7%
DMPK (human)
  residual activity: 99.7%
TNK2 (human)
  residual activity: 92.4%
KIT (human)
  residual activity: 101%
MAPK13 (human)
  residual activity: 102%
FGFR1 (human)
  residual activity: 85.7%
ROS1 (human)
  residual activity: 90.7%
STK25 (human)
  residual activity: 101%
[1]
  residual activity: 110%

## Cn1sc(=O)n(Cc2ccccc2)c1=O
GRK5 (human)
  residual activity: 93.6%
TEK (human)
  residual activity: 90.9%
CDK7 CCNH MNAT1 (human)
  residual activity: 96.8%
CSF1R (human)
  residual activity: 98.6%
AURKC (human)
  residual activity: 98.8%
TYRO3 (human)
  residual activity: 99.9%
AKT2 (human)
  residual activity: 99.2%
CDK5 CDK5R1 p35 (human)
  residual activity: 90.1%
PDGFRB (human)
  residual activity: 87.3%
PHKG2 (human)
  residual activity: 90.6%
FER (human)
  residual activity: 101%
MUSK (human)
  residual activity: 103%
FLT1 (human)
  residual activity: 96.1%
CDK6 CCND1 (human)
  residual activity: 106%
ROCK2 (human)
  residual activity: 88.8%
MINK1 (human)
  residual activity: 88.7%
DAPK3 (human)
  residual activity: 103%
EPHA4 (human)
  residual activity: 110%
ACVR1B (human)
  residual activity: 103%
MAP3K8 (human)
  residual activity: 97.1%
ERBB4 (human)
  residual activity: 104%
NEK3 (human)
  residual activity: 89.3%
PRKCD (human)
  residual activity: 94.1%
LCK (human)
  residual activity: 103%
PLK2 (human)
  residual activity: 106%
PIM2 (human)
  residual activity: 107%
MAP3K3 (human)
  residual activity: 94.2%
CDK2 CCNA2 (human)
  residual activity: 100%
ZAP70 (human)
  residual activity: 102%
CSNK1G1 (human)
  residual activity: 95.2%
TEC (human)
  residual activity: 117%
CLK1 (human)
  residual activity: 112%
MAPK3 (human)
  residual activity: 90.4%
PAK6 (human)
  residual activity: 93.4%
DMPK (human)
  residual activity: 100%
TNK2 (human)
  residual activity: 101%
KIT (human)
  residual activity: 101%
MAPK13 (human)
  residual activity: 97.5%
FGFR1 (human)
  residual activity: 95.6%
ROS1 (human)
  residual activity: 103%
STK25 (human)
  residual activity: 96.2%
[1]
  residual activity: 96%

## Cn1nc2c3c(cccc31)C(=O)c1ccccc1-2
GRK5 (human)
  residual activity: 93.8%
TEK (human)
  residual activity: 98.2%
CDK7 CCNH MNAT1 (human)
  residual activity: 98.8%
CSF1R (human)
  residual activity: 97%
AURKC (human)
  residual activity: 89.3%
TYRO3 (human)
  residual activity: 99.8%
AKT2 (human)
  residual activity: 98.9%
CDK5 CDK5R1 p35 (human)
  residual activity: 105%
PDGFRB (human)
  residual activity: 100%
PHKG2 (human)
  residual activity: 95.4%
FER (human)
  residual activity: 99.2%
MUSK (human)
  residual activity: 88.4%
FLT1 (human)
  residual activity: 84.3%
CDK6 CCND1 (human)
  residual activity: 88%
ROCK2 (human)
  residual activity: 92.3%
MINK1 (human)
  residual activity: 92.3%
DAPK3 (human)
  residual activity: 102%
EPHA4 (human)
  residual activity: 104%
ACVR1B (human)
  residual activity: 102%
MAP3K8 (human)
  residual activity: 94.3%
ERBB4 (human)
  residual activity: 94.3%
NEK3 (human)
  residual activity: 96.7%
PRKCD (human)
  residual activity: 92.3%
LCK (human)
  residual activity: 99.2%
PLK2 (human)
  residual activity: 93.5%
PIM2 (human)
  residual activity: 105%
MAP3K3 (human)
  residual activity: 94.4%
CDK2 CCNA2 (human)
  residual activity: 105%
ZAP70 (human)
  residual activity: 95.1%
CSNK1G1 (human)
  residual activity: 102%
TEC (human)
  residual activity: 102%
CLK1 (human)
  residual activity: 92.7%
MAPK3 (human)
  residual activity: 98.9%
PAK6 (human)
  residual activity: 98.6%
DMPK (human)
  residual activity: 107%
TNK2 (human)
  residual activity: 83.3%
KIT (human)
  residual activity: 86.4%
MAPK13 (human)
  residual activity: 106%
FGFR1 (human)
  residual activity: 99.5%
ROS1 (human)
  residual activity: 104%
STK25 (human)
  residual activity: 96.5%
[1]
  residual activity: 89.4%
